We go through 17 molecules from article PMC11050014, “Development of Novel Peptidyl Nitriles Targeting Rhodesain and Falcipain-2 for the Treatment of Sleeping Sickness and Malaria” (International Journal of Molecular Sciences, 2024).

Read-outs that look alike come from different tables or passages of the source. Some results are limits rather than exact numbers.

Data set [1] concerns the target T1, recombinant rhodesain (Trypanosoma brucei rhodesiense, UniProt Q95PM0).
T1 construct: Rhodesain was recombinantly expressed as previously described; made in house
Nature of the data set: Enzyme assay against recombinant rhodesain, fluorogenic substrate Cbz-Phe-Arg-AMC. It is filed as biochemical. Conditions: for inhibition at 100 µM: read-out: Rhodesain Percentage of Inhibition at 100 μM. On the procedure:
All compounds 1-8a-b were tested against recombinant rhodesain [34] by using Cbz-Phe-Arg-AMC as a fluorogenic substrate (Table 1). First, a preliminary screening at a fixed inhibitor concentration of 100 μM was performed.
An equivalent volume of DMSO was used as the negative control, and E-64, an irreversible inhibitor of clan CA family C1 cysteine proteases, was used as the positive control. For compounds that inhibited the enzyme activity at least 50% at […], continuous assays were performed at seven different concentrations to determine dissociation constants.
Preliminary screening with rhodesain was performed with 100 µM inhibitor concentrations using an equivalent amount of DMSO as negative control. Rhodesain was recombinantly expressed as previously described. Product release from substrate hydrolysis (Cbz-Phe-Arg-AMC, 10 µM) was determined continuously over a period of 10 min. […] The assay buffer contained 50 mM sodium acetate, pH = 5.5, 5 mM EDTA, 200 mM NaCl, and 0.005% Brij. The enzyme buffer contained 5 mM DTT rather than Brij. Product formation was monitored continuously for 10 min at room temperature. Inhibitor solutions were prepared from stocks in DMSO. Each independent assay was performed twice in duplicate in 96-well plates in a total volume of 200 µL. Fluorescence of the product AMC of the substrate hydrolyses was measured using an Infinite 200 PRO microplate reader (Tecan, Männedorf, Switzerland) at room temperature with a 380 nm excitation filter and a 460 nm emission filter.

Data set [2] addresses T2, recombinant FP-2 (falcipain-2) (Plasmodium falciparum, UniProt Q8I6U4).
T2 construct: recombinant FP-2, which was expressed and purified as previously reported; made in house
T2 sequence (Q8I6U4 244-484): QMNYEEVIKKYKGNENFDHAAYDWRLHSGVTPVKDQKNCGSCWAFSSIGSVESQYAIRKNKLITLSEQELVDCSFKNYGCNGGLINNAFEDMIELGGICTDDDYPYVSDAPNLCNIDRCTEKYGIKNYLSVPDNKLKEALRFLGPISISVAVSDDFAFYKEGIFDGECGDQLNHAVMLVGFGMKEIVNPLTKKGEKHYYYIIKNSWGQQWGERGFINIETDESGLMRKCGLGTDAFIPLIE
As to the kind of experiment: FP-2 inhibition assay, fluorogenic substrate Cbz-Leu-Arg-AMC. It is filed as biochemical. Conditions: 30 nM FP-2, Cbz-Leu-Arg-AMC 25 µM, pH 5.5. On the procedure: Compounds were tested for inhibition of recombinant FP-2, which was expressed and purified as previously reported. Stock solutions of the compounds, substrate, and the positive control E64 (Sigma Aldrich, St. Louis, MO, USA) were prepared at 10 mM in 100% DMSO. The compounds were incubated in 96-well white flat-bottom plates with 30 nM recombinant FP-2 for 10 min at room temperature in an assay buffer of 100 mM sodium acetate, pH 5.5, with 5 mM DTT. After incubation, the fluorogenic substrate Cbz-Leu-Arg-AMC (R&D Systems, Minneapolis, MN, USA) was added at a concentration of 25 µM in a final assay volume of 200 µL. Fluorescence was monitored with a Varioskan Flash (ThermoScientific, Waltham, MA, USA) with excitation 355 nm and emission 460 nm. The IC50 values were calculated using GraphPad Prism v. 6 (GraphPad Software Inc., San Diego, CA, USA)) based on a sigmoidal dose response curves.

The test system of data set [3] is Bloodstream T. brucei parasites (T. b. brucei). As to the kind of experiment: Antitrypanosomal activity, ATPlite cell viability assay. Conditions: Trypanosoma brucei. It is filed as cell-based.
Experimental: The final compound concentrations in the microplates were 33.3 µM to 65 nM.
Bloodstream T. brucei parasites were incubated in the presence of various concentrations of the tested compounds and after 24 h or 48 h cell viability was determined using the ATPlite (PerkinElmer, Waltham, MA, USA) assay. Chlorhexidine served as positive control. […] Cell viability data was normalized to the untreated controls and analyzed using GraphPad Prism. Whenever possible, data were fitted by log(inhibitor) vs response nonlinear fit (solid lines) and IC50 values were calculated.
[4] abbreviates: inhibitor 100 μM, n.i. = no inhibition.
Where [5] appears, read: 24 h incubation, ATPlite cell viability, read-out: Antitrypanosomal IC50 (24 h).

T1 sequence (Q95PM0 entry or part of it): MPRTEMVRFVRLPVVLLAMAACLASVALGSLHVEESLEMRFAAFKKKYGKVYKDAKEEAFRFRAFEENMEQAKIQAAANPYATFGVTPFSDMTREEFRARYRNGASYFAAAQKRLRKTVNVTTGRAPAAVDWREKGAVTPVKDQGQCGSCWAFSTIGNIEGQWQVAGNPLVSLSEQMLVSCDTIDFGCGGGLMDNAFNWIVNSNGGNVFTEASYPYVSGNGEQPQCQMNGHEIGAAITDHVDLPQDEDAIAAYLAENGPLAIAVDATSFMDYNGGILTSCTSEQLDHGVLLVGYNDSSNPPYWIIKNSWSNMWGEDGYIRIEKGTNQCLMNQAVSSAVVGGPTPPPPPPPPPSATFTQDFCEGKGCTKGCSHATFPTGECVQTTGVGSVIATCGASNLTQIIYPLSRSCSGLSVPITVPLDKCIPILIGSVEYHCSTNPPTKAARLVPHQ

In turn, `N#C[C@H](CCc1ccccc1)NC(=O)Cn1ccc2cc(F)ccc21` [4a, N-((S)-1-Cyano-3-phenylpropyl)-2-(5-fluoro-1H-indol-1-yl)acetamide] showed a melting point of 150 to 152 °C. For the same molecule, in data set [1], the inhibition at 100 µM was determined as 18.7%.
`N#CC1(NC(=O)Cn2ccc3cc(F)ccc32)CC1` [8a, N-(1-cyanocyclopropyl)-2-(5-fluoro-1H-indol-1-yl)acetamide]: the inhibition at 100 µM in data set [1] was 4.5%.
For the molecule `Cc1cn(CC(=O)NC2(C#N)CC2)c2ccccc12` [7a, N-(1-Cyanocyclopropyl)-2-(3-methyl-1H-indol-1-yl)acetamide], the half-inhibitory concentration (IC50) in data set [2] is > 50 µM. Further, in data set [1] (setting [4]), the “Rhodesain Percentage of Inhibition at 100 μM” value was “n.i”.
`[H]/N=C(\N/C(=N/[H])NCCCCCCNC(=N)NC(=N)Nc1ccc(Cl)cc1)Nc1ccc(Cl)cc1` [Chlorhexidine, chlorhexidine, reference compound]: the IC50 in data set [3] (48 h, read-out: Antitrypanosomal IC50 (48 h)) stood at 0.7 ± 0.2 µM; in data set [3] (setting [5]), 0.98 µM.
`N#C[C@H](CCc1ccccc1)NC(=O)CCn1ccc2cc(F)ccc21` [4b, N-((S)-1-Cyano-3-phenylpropyl)-3-(5-fluoro-1H-indol-1-yl)propanamide]: the melting point lay in the range of 142 to 143 °C. The inhibition at 100 µM in data set [1] was 1.9%.
Turning to `Cc1cn(CC(=O)N[C@H](C#N)CCc2ccccc2)c2ccccc12` [3a, N-((S)-1-Cyano-3-phenylpropyl)-2-(3-methyl-1H-indol-1-yl)acetamide], the melting point lay in the range of 114 to 115 °C. Moreover, in data set [2], the 50% inhibitory concentration (IC50) was > 50 µM.
In the case of `N#C[C@H](CCc1ccccc1)NC(=O)CCn1ccc2ccccc21` [1b, N-((S)-1-Cyano-3-phenylpropyl)-3-(1H-indol-1-yl)propanamide], the melting point lay within 155 to 156 °C. For the same molecule, the IC50 in data set [2] is > 50 µM. In addition, the “Rhodesain Percentage of Inhibition at 100 μM” value in data set [1] (setting [4]) is recorded as “n.i”.
Molecule `N#CC1(NC(=O)CCn2ccc3ccccc32)CC1` [5b, N-(1-Cyanocyclopropyl)-3-(1H-indol-1-yl)propanamide] came in with a melting point of 139 to 141 °C. For the same molecule, the IC50 in data set [2] was > 50 µM. For the same molecule, the inhibition at 100 µM in data set [1] (setting [4]) is 4.4%.
As for `Cc1cc2ccccc2n1CC(=O)NC1(C#N)CC1` [6a, N-(1-Cyanocyclopropyl)-2-(2-methyl-1H-indol-1-yl)acetamide], in data set [2], the IC50 is > 50 µM. Further, in data set [1] (setting [4]), the “Rhodesain Percentage of Inhibition at 100 μM” value was “n.i”.
For the molecule `N#CC1(NC(=O)CCn2ccc3cc(F)ccc32)CC1` [8b, N-(1-Cyanocyclopropyl)-3-(5-fluoro-1H-indol-1-yl)propanamide], the inhibition at 100 µM in data set [1] came out at 9.6%.
The molecule `Cc1cc2ccccc2n1CCC(=O)N[C@H](C#N)CCc1ccccc1` [2b, N-((S)-1-Cyano-3-phenylpropyl)-3-(2-methyl-1H-indol-1-yl)propanamide] registered a melting point of 144 to 145 °C. Besides, the IC50 in data set [3] (setting [5]) was 12 ± 0.7 µM. The 50% inhibitory concentration (IC50) in data set [3] (48 h incubation, ATPlite cell viability, read-out: Antitrypanosomal IC50 (48 h)) stood at 12 ± 3 µM. Besides, the half-maximal inhibitory concentration (IC50) in data set [2] is 40.4 µM.
In turn, `N#C[C@H](CCc1ccccc1)NC(=O)Cn1ccc2ccccc21` [1a, N-((S)-1-Cyano-3-phenylpropyl)2-(1H-indol-1-yl)acetamide] returned a melting point of 120 to 121 °C. Further, in data set [3] (24 h incubation, ATPlite cell viability, fitted beyond tested range (max 33.3 µM), read-out: Antitrypanosomal IC50 (24 h)), the concentration for half-maximal inhibition (IC50) was 1500 ± 2000 µM. Also, the half-maximal inhibitory concentration (IC50) in data set [3] (48 h incubation, ATPlite cell viability, fitted beyond tested range (max 33.3 µM), read-out: Antitrypanosomal IC50 (48 h)) is 280 ± 290 µM. Besides, in data set [2], the IC50 is > 50 µM.
On to `Cc1cn(CCC(=O)N[C@H](C#N)CCc2ccccc2)c2ccccc12` [3b, N-((S)-1-Cyano-3-phenylpropyl)-3-(3-methyl-1H-indol-1-yl)propanamide], for which the melting point fell in the range of 130 to 132 °C. In addition, the inhibition at 100 µM in data set [1] is 7.8%.
In the case of `Cc1cc2ccccc2n1CC(=O)N[C@H](C#N)CCc1ccccc1` [2a, N-((S)-1-Cyano-3-phenylpropyl)-2-(2-methyl-1H-indol-1-yl)acetamide], the melting point was 131 to 133 °C. Moreover, in data set [2], the IC50 was > 50 µM.
`N#CC1(NC(=O)Cn2ccc3ccccc32)CC1` [5a, N-(1-Cyanocyclopropyl)-2-(1H-indol-1-yl)acetamide]: the IC50 in data set [2] was > 50 µM. The inhibition at 100 µM in data set [1] (setting [4]) came to 6.2%.
Regarding `Cc1cn(CCC(=O)NC2(C#N)CC2)c2ccccc12` [7b, N-(1-Cyanocyclopropyl)-3-(3-methyl-1H-indole-1-yl)propanamide], the inhibition at 100 µM in data set [1] was 9.5%.
For the molecule `CC(C)C[C@H](NC(=O)[C@H]1O[C@@H]1C(=O)O)C(=O)NCCCCN=C(N)N` [E-64, reference compound], the 50% inhibitory concentration (IC50) in data set [2] turned out to be 0.051 µM. In addition, in data set [1] (Cbz-Phe-Arg-AMC 10 µM, pH 5.5, progress curves 10 min, Ki = IC50/(1 + [S]/Km)), the Ki is 0.033 ± 0.007 µM.
